These results are taken from patent publication US10544106B2, “Certain chemical entities, compositions, and methods” (NeuPharma, Inc., priority 2016, dated 2020).

For the assay, the target named is BTK (Homo sapiens (Human), UniProt Q06187). The experiment in a line: Z'-LYTE kinase inhibition assay against BTK. As to conditions: for inhibition at 0.1 µM: compound at 100 nM, ATP concentration at Km; for IC50: series of concentrations, GraphPad Prism 5. Type of assay: biochemical. The gist of the method: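 Compounds were titrated over 10 points (3-fold steps, 1% DMSO) against BTK (1.04-10.4 ng) using Tyr 01 substrate at 2 μM and ATP at Km, pH 7.5 HEPES buffer with MgCl2 and EGTA. After one hour each of reaction and development at room temperature, fluorescence gave percent inhibition and IC50.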
Chain of BTK (Q06187 whole entry): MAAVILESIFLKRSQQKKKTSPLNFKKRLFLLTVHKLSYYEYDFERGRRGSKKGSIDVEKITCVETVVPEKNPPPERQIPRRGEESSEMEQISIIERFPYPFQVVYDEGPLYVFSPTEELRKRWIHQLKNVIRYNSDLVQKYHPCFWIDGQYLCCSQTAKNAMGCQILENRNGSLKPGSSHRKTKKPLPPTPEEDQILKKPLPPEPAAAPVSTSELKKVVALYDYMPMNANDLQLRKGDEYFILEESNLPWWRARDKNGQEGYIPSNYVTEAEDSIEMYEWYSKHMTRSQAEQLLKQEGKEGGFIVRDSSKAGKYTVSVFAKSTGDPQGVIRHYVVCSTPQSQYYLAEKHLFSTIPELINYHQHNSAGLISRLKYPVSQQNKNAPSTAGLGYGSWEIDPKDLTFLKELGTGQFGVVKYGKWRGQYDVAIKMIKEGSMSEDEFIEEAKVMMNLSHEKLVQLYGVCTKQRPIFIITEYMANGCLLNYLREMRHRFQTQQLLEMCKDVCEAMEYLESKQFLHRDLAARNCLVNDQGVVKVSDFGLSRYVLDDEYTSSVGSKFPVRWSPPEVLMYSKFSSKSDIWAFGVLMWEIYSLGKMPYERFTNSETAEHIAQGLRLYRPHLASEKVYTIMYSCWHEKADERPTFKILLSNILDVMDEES

Broadly, the inhibition is the percentage by which the read-out fell short of the control. High values mean strong suppression, low ones little suppression. The term IC50 denotes the concentration needed to halve the response being measured. Read a high IC50 as lower potency.

Compound `C=CC(=O)Nc1cccc(-c2cc(-c3ccc(C(=O)Nc4cc(C#N)ccn4)cc3)cc3cncnc23)c1` [C109, 4-(8-(3-acrylamidophenyl)quinazolin-6-yl)-N-(4-cyanopyridin-2-yl)benzamide] had an inhibition at 0.1 µM below 50%.
`C=CC(=O)Nc1cccc(-c2cc(-c3cncc(OC)c3)cc3cnc(N)nc23)c1` [C110, N-(3-(2-amino-6-(5-methoxypyridin-3-yl)quinazolin-8-yl)phenyl)acrylamide] registered an inhibition at 0.1 µM above 50%.
As to `C=CC(=O)Nc1cccc(-c2cc(-c3cncc(F)c3)cc3cnc(N)nc23)c1` [C111, N-(3-(2-amino-6-(5-fluoropyridin-3-yl)quinazolin-8-yl)phenyl)acrylamide], the inhibition at 0.1 µM is above 50% and the IC50 is below 100 nM.
In turn, `C=CC(=O)Nc1cccc(-c2cc(-c3ccc(C(=O)Nc4cccnc4)cc3)cc3cncnc23)c1` [C113, 4-(8-(3-acrylamidophenyl)quinazolin-6-yl)-N-(pyridin-3-yl)benzamide] showed an inhibition at 0.1 µM below 50%.
The same measure, in the same setting: with `C=CC(=O)N1CCC(c2cc(-c3ccc(Oc4ccccn4)cc3F)cc3cncnc23)C1` (centres unmarked) [C114, 1-(3-(6-(2-fluoro-4-(pyridin-2-yloxy)phenyl)quinazolin-8-yl)pyrrolidin-1-yl)prop-2-en-1-one] the figure was above 50%; with `C=CC(=O)N1CCC(c2cc(-c3ccc(C(=O)Nc4cccnc4)cc3)cc3cncnc23)C1` (centres unmarked) [C115, 4-(8-(1-acryloylpyrrolidin-3-yl)quinazolin-6-yl)-N-(pyridin-3-yl)benzamide], below 50%.
For `C=CC(=O)Nc1cccc(-c2cc(-c3ccc(C(=O)Nc4cc(C(F)(F)F)ccn4)cc3Cl)cc3cncnc23)c1` [C116, 4-(8-(3-acrylamidophenyl)quinazolin-6-yl)-3-chloro-N-(4-(trifluoromethyl)pyridin-2-yl)benzamide], the inhibition at 0.1 µM was above 50% and the concentration for half-maximal inhibition (IC50) was below 100 nM.
In the same order, the values of `C=CC(=O)Nc1cccc(-c2cc(-c3ccc(Oc4cccnc4)cc3)cc3cncnc23)c1` [C117, N-(3-(6-(4-(pyridin-3-yloxy)phenyl)quinazolin-8-yl)phenyl)acrylamide] are above 50% and below 100 nM.
Compound `C=CC(=O)Nc1cccc(-c2cc(-c3ccccn3)cc3cncnc23)c1` [C118, N-(3-(6-(pyridin-2-yl)quinazolin-8-yl)phenyl)acrylamide] showed an inhibition at 0.1 µM above 50%.
Same read-out and setting: with `C=CC(=O)Nc1cccc(-c2cc(-c3ccc(Oc4ccccn4)c(OC)c3)cc3cncnc23)c1` [C119, N-(3-(6-(3-methoxy-4-(pyridin-2-yloxy)phenyl)quinazolin-8-yl)phenyl)acrylamide] the figure was above 50%.
Compound `C=CC(=O)Nc1cccc(-c2cc(-c3ccc(C(=O)Nc4cc(C#N)ccn4)cc3Cl)cc3cncnc23)c1` [C122, 4-(8-(3-acrylamidophenyl)quinazolin-6-yl)-3-chloro-N-(4-cyanopyridin-2-yl)benzamide] displayed an inhibition at 0.1 µM above 50% and an IC50 below 100 nM.
In the case of `C=CC(=O)N1CCC(c2cc(-c3ccc(C(=O)Nc4cc(C5CC5)ccn4)cc3)cc3cncnc23)C1` (centres unmarked) [C123, 4-(8-(1-acryloylpyrrolidin-3-yl)quinazolin-6-yl)-N-(4-cyclopropylpyridin-2-yl)benzamide], the inhibition at 0.1 µM is above 50%.
The same measure, in the same setting: with `C=CC(=O)N1CCC(c2cc(-c3ccc(C(=O)Nc4cc(C#N)ccn4)cc3)cc3cncnc23)C1` (centres unmarked) [C124, 4-(8-(1-acryloylpyrrolidin-3-yl)quinazolin-6-yl)-N-(4-cyanopyridin-2-yl)benzamide] the figure was below 50%; with `C=CC(=O)N1CCC(c2cc(-c3ccc(C(=O)Nc4cc(C(F)(F)F)ccn4)cc3)cc3cncnc23)C1` (centres unmarked) [C125, 4-(8-(1-acryloylpyrrolidin-3-yl)quinazolin-6-yl)-N-(4-(trifluoromethyl)pyridin-2-yl)benzamide], above 50%.
Compound `C=CC(=O)N1CCC(c2cc(-c3ccc(C(=O)Nc4ccccn4)cc3F)n3cnccc23)C1` (centres unmarked) [C126, 4-(5-(1-acryloylpyrrolidin-3-yl)pyrrolo[1,2-c]pyrimidin-7-yl)-3-fluoro-N-(pyridin-2-yl)benzamide] gave an inhibition at 0.1 µM below 50%.
Turning to `C=CC(=O)Nc1cccc(-c2cc(-c3ccc(C(=O)Nc4cc(C(F)(F)F)ccn4)c(F)c3)cc3cncnc23)c1` [C127, 4-(8-(3-acrylamidophenyl)quinazolin-6-yl)-2-fluoro-N-(4-(trifluoromethyl)pyridin-2-yl)benzamide], the inhibition at 0.1 µM is below 50%.
Consider `C=CC(=O)N1CCC(c2cc(-c3ccc(C(=O)Nc4cc(C(N)=O)ccn4)cc3)cc3cncnc23)C1` (centres unmarked) [C128, 2-(4-(8-(1-acryloylpyrrolidin-3-yl)quinazolin-6-yl)benzamido)isonicotinamide], for which the inhibition at 0.1 µM was below 50%.
`C=CC(=O)Nc1cccc(-c2cc(-c3ccc(C(=O)Nc4cc(C(F)(F)F)ccn4)cc3F)cc3cncnc23)c1` [C129, 4-(8-(3-acrylamidophenyl)quinazolin-6-yl)-3-fluoro-N-(4-(trifluoromethyl)pyridin-2-yl)benzamide]: the inhibition at 0.1 µM is above 50% and the IC50 was below 100 nM.
On to `C=CC(=O)N1CCC(c2cc(-c3ccc(C(=O)Nc4cc(C(F)(F)F)ccn4)cc3F)n3cnccc23)C1` (centres unmarked) [C130, 4-(5-(1-acryloylpyrrolidin-3-yl)pyrrolo[1,2-c]pyrimidin-7-yl)-3-fluoro-N-(4-(trifluoromethyl)pyridin-2-yl)benzamide], for which the inhibition at 0.1 µM was below 50%.
Compound `C=CC(=O)Nc1cccc(-c2cc(-c3ccc(C(=O)Nc4ccccn4)c(F)c3)cc3cncnc23)c1` [C132, 4-(8-(3-acrylamidophenyl)quinazolin-6-yl)-2-fluoro-N-(pyridin-2-yl)benzamide] registered an inhibition at 0.1 µM above 50% and an IC50 below 100 nM.
In turn, `C=CC(=O)N1CCC(c2cc(-c3ccc(Oc4ccccn4)cc3OC)cc3cncnc23)C1` (centres unmarked) [C133, 1-(3-(6-(2-methoxy-4-(pyridin-2-yloxy)phenyl)quinazolin-8-yl)pyrrolidin-1-yl)prop-2-en-1-one] returned an inhibition at 0.1 µM below 50%.
The same measure, in the same setting: with `C=CC(=O)Nc1cccc(-c2cc(-c3ccc(C(=O)Nc4cc(C(N)=O)ccn4)cc3Cl)cc3cncnc23)c1` [C134, 2-(4-(8-(3-acrylamidophenyl)quinazolin-6-yl)-3-chlorobenzamido)isonicotinamide] the figure was above 50%; with `C=CC(=O)N1CCC(c2cc(-c3ccc(C(=O)Nc4cc(C(F)(F)F)ccn4)cc3)n3cnccc23)C1` (centres unmarked) [C136, 4-(5-(1-acryloylpyrrolidin-3-yl)pyrrolo[1,2-c]pyrimidin-7-yl)-N-(4-(trifluoromethyl)pyridin-2-yl)benzamide], above 50%.
In turn, `C=CC(=O)Nc1cccc(-c2cc(-c3ccc(C(=O)Nc4cc(C(F)(F)F)ccn4)cc3)cc3cncnc23)c1` [C137, 4-(8-(3-acrylamidophenyl)quinazolin-6-yl)-N-(4-(trifluoromethyl)pyridin-2-yl)benzamide] came in with an inhibition at 0.1 µM above 50% and an IC50 below 100 nM.
With `C=CC(=O)Nc1cccc(-c2cc(-c3ccc(C(=O)Nc4cc(C(N)=O)ccn4)cc3)cc3cncnc23)c1` [C138, 2-(4-(8-(3-acrylamidophenyl)quinazolin-6-yl)benzamido)isonicotinamide], the inhibition at 0.1 µM is below 50%.
`C=CC(=O)Nc1cccc(-c2cc(-c3ccc(C(=O)Nc4cc(C5CC5)ccn4)c(OC)c3)cc3cncnc23)c1` [C140, 4-(8-(3-acrylamidophenyl)quinazolin-6-yl)-N-(4-cyclopropylpyridin-2-yl)-2-methoxybenzamide] came in with an inhibition at 0.1 µM below 50%.
Same read-out and setting: with `C=CC(=O)Nc1cccc(-c2cc(-c3ccc(C(=O)Nc4ccccn4)c(OC)c3)cc3cncnc23)c1` [C141, 4-(8-(3-acrylamidophenyl)quinazolin-6-yl)-2-methoxy-N-(pyridin-2-yl)benzamide] the figure was below 50%; with `C=CC(=O)N1CCC(c2cc(-c3ccc(C(=O)Nc4ccc(C(F)(F)F)cn4)cc3)cc3cncnc23)C1` (centres unmarked) [C142, 4-(8-(1-acryloylpyrrolidin-3-yl)quinazolin-6-yl)-N-(5-(trifluoromethyl)pyridin-2-yl)benzamide], below 50%.
Consider `C=CC(=O)N1CCC(c2cc(-c3ccc(Oc4cc(C(F)(F)F)ccn4)cc3)n3cnccc23)C1` (centres unmarked) [C143, 1-(3-(7-(4-((4-(trifluoromethyl)pyridin-2-yl)oxy)phenyl)pyrrolo[1,2-c]pyrimidin-5-yl)pyrrolidin-1-yl)prop-2-en-1-one], for which the inhibition at 0.1 µM was below 50%.
Still for that read-out and setting: with `C=CC(=O)N1CCC(c2cc(-c3ccc(Oc4ccccn4)cc3F)cc3cnc(N)nc23)C1` (centres unmarked) [C144, 1-(3-(2-amino-6-(2-fluoro-4-(pyridin-2-yloxy)phenyl)quinazolin-8-yl)pyrrolidin-1-yl)prop-2-en-1-one] the figure was below 50%; with `C=CC(=O)Nc1cccc(-c2cc(-c3ccc(C(=O)Nc4cc(C(F)(F)F)ccn4)c(OC)c3)cc3cncnc23)c1` [C145, 4-(8-(3-acrylamidophenyl)quinazolin-6-yl)-2-methoxy-N-(4-(trifluoromethyl)pyridin-2-yl)benzamide], below 50%; with `C=CC(=O)N1CCC(c2cc(-c3ccc(Oc4ccccn4)c(OC)c3)cc3cncnc23)C1` (centres unmarked) [C146, 1-(3-(6-(3-methoxy-4-(pyridin-2-yloxy)phenyl)quinazolin-8-yl)pyrrolidin-1-yl)prop-2-en-1-one], below 50%.
As to `C=CC(=O)N1CCC(c2cc(-c3ccc(C(=O)Nc4ccnnc4)cc3)cc3cncnc23)C1` (centres unmarked) [C147, 4-(8-(1-acryloylpyrrolidin-3-yl)quinazolin-6-yl)-N-(pyridazin-4-yl)benzamide], the inhibition at 0.1 µM is below 50%.
Consider `C=CC(=O)N1CCC(c2cc(-c3ccc(C(=O)Nc4cc(OC)ccn4)c(F)c3)n3cnccc23)C1` (centres unmarked) [C148, 4-(5-(1-acryloylpyrrolidin-3-yl)pyrrolo[1,2-c]pyrimidin-7-yl)-2-fluoro-N-(4-methoxypyridin-2-yl)benzamide], for which the inhibition at 0.1 µM is below 50%.
